# Experiments:
# Type in all cases: in vivo
# [1] = tested on: ivy-leaved morning glory (Ipomoea hederacea, IPOHE); test: Test A post-emergence, ivy-leaved morning glory; settings: after 13 d
# In short: (§1)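 Visual damage at 13 d after treatment, rated from 0 (no damage) to 100 (total damage). Eight-day-old pot-grown plants had been sprayed with 15.625, 62.5 or 250 g/ha of compound in aqueous acetone (50:50) containing 0.5% Tween 20.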
# [2] = tested on: redroot pigweed (Amaranthus retroflexus, AMARE); test: Test A post-emergence, redroot pigweed; settings: after 13 d
# In short: as §1
# [3] = tested on: corn (Zea mays, ZEAMX); test: Test A pre-emergence, corn; settings: after 13 d
# In short: (§2)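 Pots of soil sown, sprayed at day 1 post-sowing: test compound at 15.625/62.5/250 g/ha in acetone:water 1:1 + 0.5% Tween 20. Glasshouse 24/16° C., 14 h light, 65% RH, watering twice daily. Readout: % damage after 13 d.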
# [4] = tested on: giant foxtail (Setaria faberi, SETFA); test: Test A post-emergence, giant foxtail; settings: after 13 d
# In short: as §1
# [5] = tested on: maize; test: Test D pre-emergence, maize seed treated with a herbicide safener; settings: ZEAMX, preemergent, 20 DAA
# In short: (§3)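 Herbicidal injury on safener-protected cereals: application timings were one day after sowing for pre-emergence and about 12 days of cultivation for post-emergence. Assessment came 20 DAA or 15 d later respectively, on a scale where 100 meant total damage.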
# [6] = tested on: giant foxtail (Setaria faberi, SETFA); test: Test A pre-emergence, giant foxtail; settings: after 13 d
# In short: as §2
# [7] = tested on: velvetleaf (Abutilon theophrasti, ABUTH); test: Test A post-emergence, velvetleaf; settings: after 13 d
# In short: as §1
# [8] = tested on: wheat; test: Test D pre-emergence, wheat seed treated with a herbicide safener; settings: 100=total damage, 0=no damage
# In short: as §3
# [9] = tested on: wheat; test: Test D post-emergence, wheat seed treated with a herbicide safener; settings: "Cereals" Postemergent
# In short: as §3
# [10] = tested on: redroot pigweed (Amaranthus retroflexus, AMARE); test: Test A pre-emergence, redroot pigweed; settings: after 13 d
# In short: as §2
# [11] = tested on: barnyardgrass (Echinochloa crus-galli, ECHCG); test: Test A post-emergence, barnyardgrass; settings: after 13 d
# In short: as §1
# [12] = Rates 130, evaluated after 15 d
# [13] = Rates 250, evaluated after 15 d
# [14] = Rates 500, evaluated after 15 d
SMILES,damage to plant (100=total damage; 0=no damage) IPOHE ([1]; Post-Emergence at 62.5 g/ha),damage to plant (100=total damage; 0=no damage) IPOHE ([1]; Post-Emergence at 250 g/ha),damage to plant (100=total damage; 0=no damage) AMARE ([2]; Post-Emergence at 62.5 g/ha),damage to plant (100=total damage; 0=no damage) AMARE ([2]; Post-Emergence at 250 g/ha),damage to plant (100=total damage; 0=no damage) ZEAMX ([3]; Pre-Emergence at 62.5 g/ha),damage to plant (100=total damage; 0=no damage) ZEAMX ([3]; Pre-Emergence at 250 g/ha),damage to plant (100=total damage; 0=no damage) SETFA ([4]; Post-Emergence at 62.5 g/ha),damage to plant (100=total damage; 0=no damage) SETFA ([4]; Post-Emergence at 250 g/ha),"damage to plant (100=total damage to plant; 0=no damage to plant), ZEAMX ([5]; rate 15)","damage to plant (100=total damage to plant; 0=no damage to plant), ZEAMX ([5]; rate 30)","damage to plant (100=total damage to plant; 0=no damage to plant), ZEAMX ([5]; rate 60)","damage to plant (100=total damage to plant; 0=no damage to plant), ZEAMX ([5]; rate 130)","damage to plant (100=total damage to plant; 0=no damage to plant), ZEAMX ([5]; rate 250)","damage to plant (100=total damage to plant; 0=no damage to plant), ZEAMX ([5]; rate 500)",damage to plant (100=total damage; 0=no damage) SETFA ([6]; Pre-Emergence at 62.5 g/ha),damage to plant (100=total damage; 0=no damage) SETFA ([6]; Pre-Emergence at 250 g/ha),damage to plant (100=total damage; 0=no damage) ABUTH ([7]; Post-Emergence at 62.5 g/ha),damage to plant (100=total damage; 0=no damage) ABUTH ([7]; Post-Emergence at 250 g/ha),"damage to plant, TRZAW ([8]; rate 15, 20 DAA)","damage to plant, TRZAW ([8]; rate 30, 20 DAA)",other results
CN1CC(c2cc(C(F)(F)F)n(C)n2)C(C(=O)Nc2ccc(F)cc2C(C)(F)F)C1=O (racemic) [Compound 26],20,50,0,0,70,90,80,90,0,0,0,0,0,0,90,90,0,0,0,0,"damage to plant, TRZAW ([8]; rate 60, 20 DAA): 0; damage to plant, TRZAW ([8]; rate 130, 20 DAA): 10; damage to plant, TRZAW ([8]; rate 250, 20 DAA): 70; damage to plant, TRZAW ([8]; rate 500, 20 DAA): 30; TRZAW damage rating (100=total damage to plant; 0=no damage to plant) [9, 12]: 0; TRZAW damage rating (100=total damage to plant; 0=no damage to plant) [9, 13]: 0; TRZAW damage rating (100=total damage to plant; 0=no damage to plant) [9, 14]: 40; damage to plant (100=total damage; 0=no damage) AMARE ([10]; Pre-Emergence at 62.5 g/ha): 0; damage to plant (100=total damage; 0=no damage) AMARE ([10]; Pre-Emergence at 250 g/ha): 0; damage to plant (100=total damage; 0=no damage) ECHCG ([11]; Post-Emergence at 62.5 g/ha): 70; damage to plant (100=total damage; 0=no damage) ECHCG ([11]; Post-Emergence at 250 g/ha): 90"
CN1C[C@H](c2nn(C)c3c(F)cccc23)[C@@H](C(=O)Nc2cccc(F)c2F)C1=O [Compound 2],0,0,0,0,0,10,70,80,0,0,0,0,0,10,90,90,0,0,0,0,"damage to plant (100=total damage; 0=no damage) IPOHE ([1]; Post-Emergence at 15.625 g/ha): 0; damage to plant (100=total damage; 0=no damage) AMARE ([2]; Post-Emergence at 15.625 g/ha): 0; damage to plant (100=total damage; 0=no damage) ZEAMX ([3]; Pre-Emergence at 15.625 g/ha): 0; damage to plant (100=total damage; 0=no damage) SETFA ([4]; Post-Emergence at 15.625 g/ha): 0; damage to plant (100=total damage; 0=no damage) SETFA ([6]; Pre-Emergence at 15.625 g/ha): 90; damage to plant (100=total damage; 0=no damage) ABUTH ([7]; Post-Emergence at 15.625 g/ha): 0; damage to plant, TRZAW ([8]; rate 60, 20 DAA): 0; damage to plant, TRZAW ([8]; rate 130, 20 DAA): 10; damage to plant, TRZAW ([8]; rate 250, 20 DAA): 20; damage to plant, TRZAW ([8]; rate 500, 20 DAA): 80; TRZAW damage rating (100=total damage to plant; 0=no damage to plant) [9, 12]: 20; TRZAW damage rating (100=total damage to plant; 0=no damage to plant) [9, 13]: 20; TRZAW damage rating (100=total damage to plant; 0=no damage to plant) [9, 14]: 60; damage to plant (100=total damage; 0=no damage) AMARE ([10]; Pre-Emergence at 15.625 g/ha): 10; damage to plant (100=total damage; 0=no damage) AMARE ([10]; Pre-Emergence at 62.5 g/ha): 0; damage to plant (100=total damage; 0=no damage) AMARE ([10]; Pre-Emergence at 250 g/ha): 0; damage to plant (100=total damage; 0=no damage) ECHCG ([11]; Post-Emergence at 15.625 g/ha): 0; damage to plant (100=total damage; 0=no damage) ECHCG ([11]; Post-Emergence at 62.5 g/ha): 90; damage to plant (100=total damage; 0=no damage) ECHCG ([11]; Post-Emergence at 250 g/ha): 90"
CCn1nc([C@@H]2CN(C)C(=O)[C@H]2C(=O)Nc2cccc(F)c2F)c2cccc(F)c21 [Compound 14],30,50,0,0,10,70,80,90,0,0,0,10,20,50,90,90,0,0,0,0,"damage to plant (100=total damage; 0=no damage) IPOHE ([1]; Post-Emergence at 15.625 g/ha): 10; damage to plant (100=total damage; 0=no damage) AMARE ([2]; Post-Emergence at 15.625 g/ha): 0; damage to plant (100=total damage; 0=no damage) ZEAMX ([3]; Pre-Emergence at 15.625 g/ha): 20; damage to plant (100=total damage; 0=no damage) SETFA ([4]; Post-Emergence at 15.625 g/ha): 80; damage to plant (100=total damage; 0=no damage) SETFA ([6]; Pre-Emergence at 15.625 g/ha): 60; damage to plant (100=total damage; 0=no damage) ABUTH ([7]; Post-Emergence at 15.625 g/ha): 0; damage to plant, TRZAW ([8]; rate 60, 20 DAA): 0; damage to plant, TRZAW ([8]; rate 130, 20 DAA): 0; damage to plant, TRZAW ([8]; rate 250, 20 DAA): 60; damage to plant, TRZAW ([8]; rate 500, 20 DAA): 90; TRZAW damage rating (100=total damage to plant; 0=no damage to plant) [9, 12]: 10; TRZAW damage rating (100=total damage to plant; 0=no damage to plant) [9, 13]: 70; TRZAW damage rating (100=total damage to plant; 0=no damage to plant) [9, 14]: 80; damage to plant (100=total damage; 0=no damage) AMARE ([10]; Pre-Emergence at 15.625 g/ha): 0; damage to plant (100=total damage; 0=no damage) AMARE ([10]; Pre-Emergence at 62.5 g/ha): 0; damage to plant (100=total damage; 0=no damage) AMARE ([10]; Pre-Emergence at 250 g/ha): 0; damage to plant (100=total damage; 0=no damage) ECHCG ([11]; Post-Emergence at 15.625 g/ha): 80; damage to plant (100=total damage; 0=no damage) ECHCG ([11]; Post-Emergence at 62.5 g/ha): 80; damage to plant (100=total damage; 0=no damage) ECHCG ([11]; Post-Emergence at 250 g/ha): 80"

# From patent US20220281848A1, “PYRAZOLE-SUBSTITUTED PYRROLIDINONES AS HERBICIDES” (FMC Corporation, priority 2019, published 2022)
